Holding throughout (assay): growth of human tumour cells (NCI), 48 h
Experiment [1] has as its system SK-MEL-28 melanoma.
Experiment [2] deals with HS 578T breast.
Experiment [3] relates to 786-0 renal.
Experiment [4] deals with EKVX NSCLC.
Experiment [5] concerns NCI-H226 lung.
Experiment [6] concerns MALME-3M melanoma.
The test system of experiment [7] is PC-3 prostate.
The test system of experiment [8] is SR leukemia.
Experiment [9] concerns MCF7 breast.
In experiment [10] the test system is SNB-19 CNS.

Values joined by “and” are separate entries in the source; they are usually repeats but may differ in a detail not shown here. Equal values may be shown once.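 Each compound was tested at five concentrations against cells in 96-well plates for 48 hours. The concentration for 50% growth inhibition is given as GI50. TGI is the concentration that stops growth completely.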 Some results are limits rather than exact numbers.

As to `S=C(Nc1ccccc1)c1ccccn1`, the GI50 was more than 100 µM in experiment [1]; more than 100 µM in experiment [2]; more than 100 µM in [3]; 42.9 µM in [4]; more than 100 µM in experiment [5]; more than 100 µM in experiment [6]. The GI50 is 54.7 µM in [7], 25.5 µM in experiment [8], more than 100 µM in experiment [9] and more than 100 µM in [10]. The TGI in experiment [1], in [2], in experiment [3], in experiment [4], in [5] and in [6] was more than 100 µM each time. The TGI in [7], in experiment [8], in experiment [9] and in experiment [10] was more than 100 µM in each case.
Regarding `COc1ccc(/C=C/C(=O)c2ccc(Nc3ncnc4ccccc34)cc2)cc1OC`, the GI50 in experiment [1] is 13.7 µM; in experiment [2] it was 15.3 µM; in experiment [3], 7.96 µM; in [4], 13.9 µM; in experiment [5], 3.53 µM; in experiment [6], 13.8 µM. Besides, the GI50 in [7] was 4.22 µM; in experiment [8], 2.04 µM; in [9] it was 2.43 µM; in [10], 11.5 µM. Moreover, the TGI was 93.5 µM in experiment [1]; more than 100 µM in experiment [2]; more than 100 µM in [3]; more than 100 µM in experiment [4]; 31.9 µM in experiment [5]; more than 100 µM in experiment [6]. For the same compound, the TGI in [7] was more than 100 µM; in experiment [8], 6.36 µM; in experiment [9], 14.3 µM; in [10], more than 100 µM.
On to `O=C1C(NCCO)=C(N2CC2)C(=O)C(NCCO)=C1N1CC1`, for which the TGI in [1] was more than 100 µM; in experiment [2], more than 100 µM; in experiment [3] it was more than 60.9 µM; in experiment [4], more than 100 µM; in experiment [5] it was more than 94.4 µM; in experiment [6], more than 100 µM. Moreover, the TGI was more than 100 µM in experiment [7], 51.6 µM in [8], more than 100 µM in experiment [9] and more than 100 µM in experiment [10].
For `Cc1sc2ncnc(Sc3nc4ccccc4[nH]3)c2c1C`, the GI50 in [1] is 23.4 µM; in [2], 18.4 µM; in experiment [3] it was 37.3 µM; in [5], 27.2 µM; in experiment [6] it was 15.6 µM; in experiment [7] it was 23.9 µM. Besides, the results for the GI50 in [8], in experiment [9] and in experiment [10] were 10.6 µM, 13.6 µM and 47 µM, respectively. Also, the TGI in experiment [1] is 74.7 µM; in [2], 67.6 µM; in experiment [3], more than 100 µM; in experiment [5], more than 100 µM; in [6], 80.1 µM; in experiment [7] it was more than 100 µM. The values for the TGI in [8], in [9] and in experiment [10] were 23 µM, 67 µM and more than 100 µM, respectively.
Take `Cc1c(C(=O)/C=C/c2ccc(O)cc2)nnn1-c1ccnc2c(C(F)(F)F)cccc12`: the GI50 was 51.8 µM in [1]; 60.7 µM in [2]; more than 100 µM in experiment [3]; 39 µM in experiment [4]; 27.3 µM in experiment [5]; 12.2 µM in [6]. Further, the GI50 in experiment [7] is 7.88 µM; in experiment [8], 2.29 µM; in experiment [9], 23.5 µM; in experiment [10] it was 24.9 µM. The TGI is more than 100 µM in [1]; more than 100 µM in experiment [2]; more than 100 µM in [3]; more than 100 µM in experiment [4]; more than 100 µM in [5]; 75.3 µM in experiment [6]. The TGI was more than 100 µM in [7], 9.86 µM in experiment [8], more than 100 µM in experiment [9] and more than 100 µM in experiment [10].
Consider `OCCNc1nc(NCCO)nc(Nc2ccc(C3=NN(c4cc(Cl)cc(Cl)c4)C(c4ccc(Cl)cc4)C3)cc2)n1` (stereo not drawn), for which the GI50 in experiment [1] was 1.61 µM; in [2] it was 2.22 µM; in experiment [3] it was 1.64 µM; in experiment [4], 2.04 µM; in experiment [5], 2.45 µM; in experiment [6] it was 2.1 µM. Further, the GI50 in experiment [7] was 1.62 µM; in experiment [8], 1.45 µM; in experiment [9] it was 1.42 µM; in experiment [10], 2.07 µM. Also, the TGI in experiment [1] came out at 3.02 µM; in [2], 6.98 µM; in [3], 3.28 µM; in experiment [4] it was 4.72 µM; in experiment [5] it was 5.48 µM; in experiment [6], 3.92 µM. Besides, the TGI in experiment [7] is 4.32 µM; in [8] it was 3.31 µM; in [9] it was 3.31 µM; in [10], 4.12 µM.
As to `Cn1cnc2c(F)c(Nc3ccc(Br)cc3Cl)c(C(=O)NOCCO)cc21`, the GI50 in [1] was 0.0269 µM and 0.0268 µM; in [2] it was > 10 µM and 32.5 µM; in [3] it was > 10 µM and 60.6 µM; in experiment [4], 0.734 µM and 3.88 µM; in experiment [5], > 10 µM and 23.9 µM; in experiment [6] it was less than 0.0187 µM. Further, the GI50 in experiment [7] is more than 100 µM; in experiment [8], > 10 µM and 5.85 µM; in [9], more than 100 µM; in [10] it was > 10 µM and 40.4 µM. The TGI in experiment [1] was > 2.81 µM and 2.52 µM; in experiment [2], more than 100 µM; in [3] it was more than 100 µM; in experiment [4], more than 100 µM; in [5], more than 100 µM; in [6], 0.018 µM. Moreover, the TGI in [7] was more than 100 µM; in experiment [8], more than 33.8 µM; in [9] it was more than 100 µM; in experiment [10], more than 100 µM.
Take `CN(C)c1cccc2[nH]c(-c3[nH]ncc3Nc3ccnc(N)n3)nc12`: the GI50 in [1] is 0.0183 µM; in [2], less than 0.0156 µM; in [3], 0.0247 µM; in experiment [4], 0.0259 µM; in experiment [5], less than 0.0159 µM; in [6], 0.0359 µM. Further, the GI50 in experiment [7] is 0.0147 µM; in [8], less than 0.01 µM; in experiment [9], 0.0206 µM; in experiment [10] it was 0.0152 µM. The TGI in experiment [1] is 0.452 µM; in [2], 0.261 µM; in experiment [3], 1.13 µM; in experiment [4], 0.998 µM; in [5], 0.193 µM; in experiment [6], 0.114 µM. The TGI was determined as 0.276 µM in experiment [7], 5.47 µM in experiment [8], 1.15 µM in [9] and 1.77 µM in experiment [10].
